Patent US20090246292A1, “ANTIMICROBIAL FORMULATIONS COMPRISING A QUINONE AND A COPPER SALT” (priority 2006, published 2009)

Key:
P. acnes NCTC 737 [1] = assay: Disc diffusion assay (DDA), also supplemented; settings: for DDA + salt & lipid: Example 8, single compound, salt and 1% (v/v) triolein;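 on all read-outs here: paper disc carrying compound placed on inoculated Wilkins-Chalgren Anaerobe agar pH 6.0, with lipid or NaCl supplement where listed, anaerobic 37 °C for 72 h, inhibition zone diameter read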
P. acnes NCTC 737 [2] = assay: Synergy disc diffusion assay (SDDA), also supplemented; settings: for SL SDDA area increase / SL SDDA increase / SL SDDA with CSL / SL SDDA with CSPH: salt and lipid (1% (v/v) triolein); for SDDA area increase / SDDA increase: unsupplemented
Description: The propionibacteria were cultured and maintained on Wilkins-Chalgren Anaerobe Medium (agar and broth) at pH 6.0; all cultures were incubated anaerobically at 37° C. for 72 hours.
(e) Synergy Disc Diffusion Assay (SDDA)
(§1) This is a variation on the DDA method, in which two compounds are tested together for their combined antimicrobial activity.
(§2) Two test compounds A and B were placed on a single paper disc and the above described DDA procedure repeated.
(f) Supplemented Disc Diffusion Assays
For assays using Propionibacterium spp. strains the supplements used in the examples below were lipid (either Tween™ 80 or triolein, both at 1% v/v) and sodium chloride (100 mM).

S. aureus ATCC 29213 [3] = assay: Disc diffusion assay (DDA), also supplemented; settings: Example 9; single compound; salt and serum
S. aureus ATCC 29213 [4] = assay: Synergy disc diffusion assay (SDDA), also supplemented; settings: for SS SDDA area increase / SS SDDA increase / SS SDDA with CSL / SS SDDA with CSPH: salt and serum supplements; for SDDA area increase / SDDA increase: unsupplemented;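 on all read-outs here: disc diffusion on Mueller-Hinton agar at pH 7.2, aerobic incubation at 37 °C lasting 19-20 h, two compounds assessed jointly for combined antimicrobial effect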
Description: (e) Synergy Disc Diffusion Assay (SDDA)
as §1, §2
(f) Supplemented Disc Diffusion Assays
For assays using S. aureus ATCC 29213 the supplements used were sodium chloride (100 mM), lipid (Tween™ 80 at 1% v/v) and horse serum (5% v/v).

CC(C)(C)C1=CC(=O)C=CC1=O
DDA + salt & lipid (P. acnes NCTC 737 [1]): 45.13 (±1.45) mm | SL SDDA area increase (P. acnes NCTC 737 [2]; quinone + CSL): 56.24% | SL SDDA increase (P. acnes NCTC 737 [2]; quinone + CSL): 11.28 mm | SL SDDA with CSL (P. acnes NCTC 737 [2]; quinone + CSL): 56.41 (±2.58) mm | SDDA area increase (P. acnes NCTC 737 [2]; quinone + CSL): 63.59% | SDDA increase (P. acnes NCTC 737 [2]; quinone + CSL): 11.39 mm | SL SDDA area increase (P. acnes NCTC 737 [2]; quinone + CSPH): 10.60% | SL SDDA increase (P. acnes NCTC 737 [2]; quinone + CSPH): 2.56 mm | SL SDDA with CSPH (P. acnes NCTC 737 [2]; quinone + CSPH): 52.10 (±2.56) mm | SDDA area increase (P. acnes NCTC 737 [2]; quinone + CSPH): 61.51% | SDDA increase (P. acnes NCTC 737 [2]; quinone + CSPH): 11.39 mm

O=C1C=CC(=O)C(Cl)=C1 [2-chloro-1,4-benzoquinone]
DDA (P. acnes NCTC 737 [1]): 22.15 (±0.53) mm | DDA + salt & lipid (P. acnes NCTC 737 [1]): 24.31 (±0.81) mm | SDDA with CSL (P. acnes NCTC 737 [2]): 45.85 (±0.31) mm | SDDA with CSPH (P. acnes NCTC 737 [2]): 47.28 (±1.39) mm | SL SDDA area increase (P. acnes NCTC 737 [2]; quinone + CSL): 31.58% | SL SDDA increase (P. acnes NCTC 737 [2]; quinone + CSL): 6.26 mm | SL SDDA with CSL (P. acnes NCTC 737 [2]; quinone + CSL): 48.82 (±0.47) mm | SDDA area increase (P. acnes NCTC 737 [2]; quinone + CSL): 26.16% | SDDA increase (P. acnes NCTC 737 [2]; quinone + CSL): 5.03 mm | SL SDDA area increase (P. acnes NCTC 737 [2]; quinone + CSPH): 3.75% | SL SDDA increase (P. acnes NCTC 737 [2]; quinone + CSPH): 0.92 mm | SL SDDA with CSPH (P. acnes NCTC 737 [2]; quinone + CSPH): 50.46 (±2.15) mm | SDDA area increase (P. acnes NCTC 737 [2]; quinone + CSPH): 26.42% | SDDA increase (P. acnes NCTC 737 [2]; quinone + CSPH): 5.23 mm

CCc1cc(O)ccc1O [2-ethyl-p-hydroquinone]
DDA + salt & lipid (P. acnes NCTC 737 [1]): 33.74 (±1.69) mm | DDA + salt & serum (S. aureus ATCC 29213 [3]): 25.26 (±1.29) mm | SL SDDA area increase (P. acnes NCTC 737 [2]; quinone + CSL): 31.58% | SL SDDA increase (P. acnes NCTC 737 [2]; quinone + CSL): 6.26 mm | SL SDDA with CSL (P. acnes NCTC 737 [2]; quinone + CSL): 48.82 (±0.47) mm | SDDA area increase (P. acnes NCTC 737 [2]; quinone + CSL): 33.02% | SDDA increase (P. acnes NCTC 737 [2]; quinone + CSL): 6.26 mm | SL SDDA area increase (P. acnes NCTC 737 [2]; quinone + CSPH): 11.07% | SL SDDA increase (P. acnes NCTC 737 [2]; quinone + CSPH): 2.67 mm | SL SDDA with CSPH (P. acnes NCTC 737 [2]; quinone + CSPH): 52.21 (±0.18) mm | SDDA area increase (P. acnes NCTC 737 [2]; quinone + CSPH): 44.00% | SDDA increase (P. acnes NCTC 737 [2]; quinone + CSPH): 8.41 mm | SS SDDA area increase (S. aureus ATCC 29213 [4]; quinone + CSL): 41.05% | SS SDDA increase (S. aureus ATCC 29213 [4]; quinone + CSL): 4.74 mm | SS SDDA with CSL (S. aureus ATCC 29213 [4]; quinone + CSL): 30.00 (±2.47) mm | SDDA area increase (S. aureus ATCC 29213 [4]; quinone + CSL): 151.18% | SDDA increase (S. aureus ATCC 29213 [4]; quinone + CSL): 14.23 mm | SS SDDA area increase (S. aureus ATCC 29213 [4]; quinone + CSPH): 68.40% | SS SDDA increase (S. aureus ATCC 29213 [4]; quinone + CSPH): 7.52 mm | SS SDDA with CSPH (S. aureus ATCC 29213 [4]; quinone + CSPH): 32.78 (±0.31) mm | SDDA area increase (S. aureus ATCC 29213 [4]; quinone + CSPH): 157.87% | SDDA increase (S. aureus ATCC 29213 [4]; quinone + CSPH): 14.74 mm

CC1=CC(=O)C=CC1=O [2-methyl-p-benzoquinone]
DDA (P. acnes NCTC 737 [1]): 33.74 (±1.52) mm | DDA + salt & lipid (P. acnes NCTC 737 [1]): 35.18 (±1.24) mm | SDDA with CSL (P. acnes NCTC 737 [2]): 49.64 (±0.99) mm | SDDA with CSPH (P. acnes NCTC 737 [2]): 49.54 (±0.81) mm | SL SDDA area increase (P. acnes NCTC 737 [2]; quinone + CSL): 37.19% | SL SDDA increase (P. acnes NCTC 737 [2]; quinone + CSL): 7.29 mm | SL SDDA with CSL (P. acnes NCTC 737 [2]; quinone + CSL): 49.85 (±3.20) mm | SDDA area increase (P. acnes NCTC 737 [2]; quinone + CSL): 47.88% | SDDA increase (P. acnes NCTC 737 [2]; quinone + CSL): 8.82 mm | SL SDDA area increase (P. acnes NCTC 737 [2]; quinone + CSPH): 18.59% | SL SDDA increase (P. acnes NCTC 737 [2]; quinone + CSPH): 4.41 mm | SL SDDA with CSPH (P. acnes NCTC 737 [2]; quinone + CSPH): 53.95 (±1.16) mm | SDDA area increase (P. acnes NCTC 737 [2]; quinone + CSPH): 38.80% | SDDA increase (P. acnes NCTC 737 [2]; quinone + CSPH): 7.49 mm

Cc1cc(O)ccc1O [2-methyl-p-hydroquinone]
DDA + salt & lipid (P. acnes NCTC 737 [1]): 35.18 (±4.06) mm | DDA + salt & serum (S. aureus ATCC 29213 [3]): 26.91 (±0.00) mm | SL SDDA area increase (P. acnes NCTC 737 [2]; quinone + CSL): 35.49% | SL SDDA increase (P. acnes NCTC 737 [2]; quinone + CSL): 6.98 mm | SL SDDA with CSL (P. acnes NCTC 737 [2]; quinone + CSL): 49.54 (±0.81) mm | SDDA area increase (P. acnes NCTC 737 [2]; quinone + CSL): 24.46% | SDDA increase (P. acnes NCTC 737 [2]; quinone + CSL): 4.72 mm | SL SDDA area increase (P. acnes NCTC 737 [2]; quinone + CSPH): 17.67% | SL SDDA increase (P. acnes NCTC 737 [2]; quinone + CSPH): 4.20 mm | SL SDDA with CSPH (P. acnes NCTC 737 [2]; quinone + CSPH): 53.74 (±1.75) mm | SDDA area increase (P. acnes NCTC 737 [2]; quinone + CSPH): 24.24% | SDDA increase (P. acnes NCTC 737 [2]; quinone + CSPH): 4.82 mm | SS SDDA area increase (S. aureus ATCC 29213 [4]; quinone + CSL): 90.18% | SS SDDA increase (S. aureus ATCC 29213 [4]; quinone + CSL): 10.20 mm | SS SDDA with CSL (S. aureus ATCC 29213 [4]; quinone + CSL): 37.11 (±1.11) mm | SDDA area increase (S. aureus ATCC 29213 [4]; quinone + CSL): 112.09% | SDDA increase (S. aureus ATCC 29213 [4]; quinone + CSL): 11.76 mm | SS SDDA area increase (S. aureus ATCC 29213 [4]; quinone + CSPH): 74.72% | SS SDDA increase (S. aureus ATCC 29213 [4]; quinone + CSPH): 8.66 mm | SS SDDA with CSPH (S. aureus ATCC 29213 [4]; quinone + CSPH): 35.57 (±0.62) mm | SDDA area increase (S. aureus ATCC 29213 [4]; quinone + CSPH): 140.93% | SDDA increase (S. aureus ATCC 29213 [4]; quinone + CSPH): 14.23 mm
